Experiments:
IRAK4 enzyme = biological target: T1, IRAK4 enzyme (Homo sapiens, UniProt Q9NWZ3); assay: IRAK4 enzyme activity inhibition (ADP-Glo, Promega kit); type: biochemical; conditions: for inhibition at 0.1 µM: test compound 0.1 uM; for inhibition at 1 µM: test compound 1 uM
T1 construct: purchased Promega V2621
T1 sequence (Q9NWZ3 1-460): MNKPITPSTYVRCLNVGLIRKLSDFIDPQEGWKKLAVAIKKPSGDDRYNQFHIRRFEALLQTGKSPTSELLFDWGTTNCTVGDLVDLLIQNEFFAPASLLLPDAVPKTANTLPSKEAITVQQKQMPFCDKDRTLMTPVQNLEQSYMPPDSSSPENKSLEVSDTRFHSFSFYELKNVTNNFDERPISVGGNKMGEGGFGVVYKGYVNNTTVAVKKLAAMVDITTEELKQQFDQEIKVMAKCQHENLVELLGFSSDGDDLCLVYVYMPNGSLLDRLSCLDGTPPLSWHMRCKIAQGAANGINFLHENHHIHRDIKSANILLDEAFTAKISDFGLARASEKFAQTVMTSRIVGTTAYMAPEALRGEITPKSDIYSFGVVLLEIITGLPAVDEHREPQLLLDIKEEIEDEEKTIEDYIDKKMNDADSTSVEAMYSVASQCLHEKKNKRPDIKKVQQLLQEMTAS
Procedure: An experiment on IRAK4 enzyme activity inhibition of the compound of the present invention was conducted.
An IRAK4 enzyme kit (purchased from Promega, product number: V2621) was used to dilute a mixed solution between 0.1 µg/µL of myelin basic protein (MBP), which is an enzyme-reactive substrate, and 1.25 mM of ATP with a reaction buffer (40 mM Tris-HCl, pH 7.5; 20 mM MgCl2; 0.1 mg/mL BSA; 50 µM DTT) according to the instructions, so as to dispense 2 µL in a 384-well white plate, and then to add 1 µL of a test compound, which was gradient diluted starting from 1 mM, to a 384-well plate. After that, an IRAK4 enzyme was diluted with a reaction buffer to a final concentration of 5 ng/µL, then 2 µL/well was dispensed into a 384-well white plate and reacted at 37°C for 60 minutes. After completion of a reaction, an ADP-GloTM enzyme test kit (purchased from Promega, product number: V9102) was used to add 5 µL of ADP-Glo reaction reagent and cause a reaction at 37°C for 40 minutes, and then 10 µL of enzyme chromogenic reagent was added again to measure a luminescence signal using equipment for measuring absorbance (THECAN, Microplate Reader). An activity inhibition rate was calculated from a measured value, and a 50% inhibition concentration (IC50 value) was analyzed through a non-linear regression analysis based on the % inhibition for each concentration of the test compound, and is shown in Table 2.

IRAK1 enzyme = biological target: T2, IRAK1 enzyme (Homo sapiens, UniProt P51617); assay: IRAK1 enzyme activity inhibition (ADP-Glo, Promega kit); type: biochemical; conditions: for inhibition at 0.1 µM: test compound 0.1 uM; for inhibition at 1 µM: test compound 1 uM
T2 construct: purchased Promega VA7477
T2 sequence (P51617 whole entry): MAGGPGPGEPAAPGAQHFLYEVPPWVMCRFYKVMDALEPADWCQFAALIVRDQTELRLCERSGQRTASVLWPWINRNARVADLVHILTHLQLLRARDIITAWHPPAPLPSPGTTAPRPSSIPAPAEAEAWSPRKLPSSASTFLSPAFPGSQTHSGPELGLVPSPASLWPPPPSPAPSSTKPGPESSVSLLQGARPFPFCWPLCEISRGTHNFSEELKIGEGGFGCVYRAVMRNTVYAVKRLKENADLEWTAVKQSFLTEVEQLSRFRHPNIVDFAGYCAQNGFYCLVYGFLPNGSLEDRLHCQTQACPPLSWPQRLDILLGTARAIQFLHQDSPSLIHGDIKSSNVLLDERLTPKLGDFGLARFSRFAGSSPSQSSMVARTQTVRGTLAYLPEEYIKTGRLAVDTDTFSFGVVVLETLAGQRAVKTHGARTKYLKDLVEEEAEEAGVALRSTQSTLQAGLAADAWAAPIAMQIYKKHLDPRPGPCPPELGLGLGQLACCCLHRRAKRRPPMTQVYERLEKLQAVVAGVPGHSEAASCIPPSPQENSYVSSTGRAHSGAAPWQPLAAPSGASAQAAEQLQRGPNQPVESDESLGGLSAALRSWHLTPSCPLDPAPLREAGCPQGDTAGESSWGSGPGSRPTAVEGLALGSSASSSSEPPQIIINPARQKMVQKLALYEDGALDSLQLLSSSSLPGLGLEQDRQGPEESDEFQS
Procedure: An experiment on IRAK1 enzyme activity inhibition of the compound of the present invention was conducted.
An IRAK1 enzyme kit (purchased from Promega, product number: VA7477) was used to dilute a mixed solution between 0.1 µg/µL of protein kinase B (AKT), which is an enzyme-reactive substrate, and 1.25 mM of ATP with a reaction buffer (40 mM Tris-HCl, pH 7.5; 20 mM MgCl2; 0.1 mg/mL BSA; 50 µM DTT) according to the instructions, so as to dispense 2 µL in a 384-well white plate, and then to add 1 µL of a test compound, which was gradient diluted starting from 1 mM, to a 384-well white plate. After that, an IRAK1 enzyme was diluted with a reaction buffer to a final concentration of 5 ng/µL, then 2 µL/well was dispensed into a 384-well white plate and reacted at 37°C for 60 minutes. After completion of a reaction, an ADP-GloTM enzyme test kit (purchased from Promega, product number: V9102) was used to add 5 µL of ADP-Glo reaction reagent and cause a reaction at 37°C for 40 minutes, and then 10 µL of enzyme chromogenic reagent was added again to measure a luminescence signal using equipment for measuring absorbance (THECAN, Microplate Reader). An activity inhibition rate was calculated from a measured value, and a 50% inhibition concentration (IC50 value) was analyzed through a non-linear regression analysis based on the % inhibition for each concentration of the test compound, and is shown in Table 3.

Row | Structure (SMILES) | inhibition at 0.1 µM (IRAK4 enzyme) | inhibition at 0.1 µM (IRAK1 enzyme) | inhibition at 1 µM (IRAK1 enzyme) | IC50 (IRAK4 enzyme) | inhibition at 1 µM (IRAK4 enzyme)
1 | CN(C)c1cc2nn(CCC(C)(C)O)cc2cc1NC(=O)c1cccc([N+](=O)[O-])c1 [Example 38, N-(6-(dimethylamino)-2-(3-hydroxy-3-methylbutyl)-2H-indazol-5-yl)-3-nitrobenzamide] | 87.9% | 4.6% |  | 5.1 nM | 
2 | CNC(=O)CNC(=O)c1ccc(-c2cc3nn(CCC(C)(C)O)cc3cc2NC(=O)c2cccc([N+](=O)[O-])c2)cc1 [Example 41, N-(2-(3-hydroxy-3-methylbutyl)-6-(4-((2-(methylamino)-2-oxoethyl)carbamoyl)phenyl)-2H-indazol-5-yl)-3-nitrobenzamide] | 69% | 0.4% |  |  | 
3 | CC(C)(O)CCn1cc2cc(NC(=O)c3cccc([N+](=O)[O-])c3)c(-c3ccc(C(=O)NCC(N)=O)cc3)cc2n1 [Example 43, N-(6-(4-((2-amino-2-oxoethyl)carbamoyl)phenyl)-2-(3-hydroxy-3-methylbutyl)-2H-indazol-5-yl)-3-nitrobenzamide] | 63% | 1.7% |  |  | 
4 | CC(C)(O)CCn1cc2cc(NC(=O)c3cccc(S(N)(=O)=O)c3)c(-c3ccc(C(N)=O)cc3)cc2n1 [Example 46, N-(6-(4-carbamoylphenyl)-2-(3-hydroxy-3-methylbutyl)-2H-indazol-5-yl)-3-sulfamoylbenzamide] | 57.5% | 3.2% |  |  | 
5 | CCOC(=O)[C@H](NC(=O)c1ccc(-c2cc3nn(CCC(C)(C)O)cc3cc2NC(=O)c2cccc(S(N)(=O)=O)c2)cc1)C(C)C [Example 47, Ethyl (4-(2-(3-hydroxy-3-methylbutyl)-5-(3-sulfamoylbenzamido)-2H-indazol-6-yl)benzoyl)-D-valinate] | 56.8% | 1.3% |  |  | 
6 | COC(=O)CCNC(=O)c1cncc(-c2cc3nn(CCC(C)(C)O)cc3cc2NC(=O)c2cccc(S(N)(=O)=O)c2)c1 [Example 48, Methyl 3-(5-(2-(3-hydroxy-3-methylbutyl)-5-(3-sulfamoylbenzamido)-2H-indazol-6-yl)nicotinamido)propanoate] | 56.7% | 39.7% |  |  | 
7 | CC(C)(O)CCn1cc2cc(NC(=O)c3cccc(C(N)=O)c3)c(-c3ccc(C(=O)NCc4ccoc4)cc3)cc2n1 [Example 49, N-(6-(4-((furan-3-ylmethyl)carbamoyl)phenyl)-2-(3-hydroxy-3-methylbutyl)-2H-indazol-5-yl)isophthalamide] | 55.4% | 27.7% | 31.6% |  | 
8 | CNC(=O)[C@@H](C)NC(=O)c1cncc(-c2cc3nn(CCC(C)(C)O)cc3cc2NC(=O)c2cccc(S(N)(=O)=O)c2)c1 [Example 51, (R)-5-(2-(3-hydroxy-3-methylbutyl)-5-(3-sulfamoylbenzamido)-2H-indazol-6-yl)-N-(1-(methylamino)-1-oxopropan-2-yl)nicotinamide] | 48.8% | 0% |  |  | 
9 | CS(=O)(=O)CCn1ncc2cc(NC(=O)c3cccc([N+](=O)[O-])c3)c(N3CCOCC3)cc21 [Example 52, N-(1-(2-(methylsulfonyl)ethyl)-6-morpholino-1H-indazol-5-yl)-3-nitrobenzamide] | 21.2% | 0% |  |  | 

The remaining lines, values ahead:

Row | inhibition at 0.1 µM (IRAK4 enzyme) | inhibition at 0.1 µM (IRAK1 enzyme) | inhibition at 1 µM (IRAK1 enzyme) | IC50 (IRAK4 enzyme) | inhibition at 1 µM (IRAK4 enzyme) | Structure (SMILES)
10 | 57.3% | 17.6% | 25.3% |  |  | CC(C)(O)CCn1cc2cc(NC(=O)c3cccc(-c4nccs4)c3)c(N3CCOCC3)cc2n1 [Example 27, N-(2-(3-hydroxy-3-methylbutyl)-6-morpholino-2H-indazol-5-yl)-3-(thiazol-2-yl)benzamide]
11 | 82.8% | 8.6% |  | 0.88 nM |  | CC(C)(O)CCn1cc2cc(NC(=O)c3cccc([N+](=O)[O-])c3)c(N3CCC(C(C)(C)O)CC3)cc2n1 [Example 30, N-(2-(3-hydroxy-3-methylbutyl)-6-(4-(2-hydroxypropan-2-yl)piperidin-1-yl)-2H-indazol-5-yl)-3-nitrobenzamide]
12 | 88% | 30.6% | 66.7% | 13.4 nM |  | CC(C)(O)CCn1cc2cc(NC(=O)c3cccc(S(N)(=O)=O)c3)c(N3CCC(O)CC3)cc2n1 [Example 31, N-(2-(3-hydroxy-3-methylbutyl)-6-(4-hydroxypiperidin-1-yl)-2H-indazol-5-yl)-3-sulfamoylbenzamide]
13 | 71.3% | 24% | 39.3% | 22.1 nM | 95.6% | CC(C)(O)CCn1cc2cc(NC(=O)c3cccc(C(N)=O)c3)c(N3CCSCC3)cc2n1 [Example 33, N-(2-(3-hydroxy-3-methylbutyl)-6-thiomorpholino-2H-indazol-5-yl)isophthalamide]
14 | 69.4% | 4.6% | 17.4% |  | 88.2% | O=C(Nc1cc2cn(CCN3CCOCC3)nc2cc1-c1ccc(F)cc1)c1cccc([N+](=O)[O-])c1 [Example 34, N-(6-(4-fluorophenyl)-2-(2-morpholinoethyl)-2H-indazol-5-yl)-3-nitrobenzamide]
15 | 64.6% | 33.1% | 60.8% |  |  | CC(C)(O)CCn1cc2cc(NC(=O)c3cccc([N+](=O)[O-])c3)c(-c3cccc(C(=O)N4CCOCC4)c3)cc2n1 [Example 35, N-(2-(3-hydroxy-3-methylbutyl)-6-(3-(morpholine-4-carbonyl)phenyl)-2H-indazol-5-yl)-3-nitrobenzamide]
16 | 55.2% | 5.7% | 12.9% |  |  | CC(C)(O)CCn1cc2cc(NC(=O)c3cccc(-c4ccsc4)n3)c(N3CCOCC3)cc2n1 [Example 36, N-(2-(3-hydroxy-3-methylbutyl)-6-morpholino-2H-indazol-5-yl)-6-(thiophen-3-yl)picolinamide]
17 | 52.2% | 26.3% | 31% |  |  | CC(C)(O)CCn1cc2cc(NC(=O)c3cccc([N+](=O)[O-])c3)c(-c3ccc(N4CCOCC4)cc3)cc2n1 [Example 37, N-(2-(3-hydroxy-3-methylbutyl)-6-(4-morpholinophenyl)-2H-indazol-5-yl)-3-nitrobenzamide]
18 | 69.7% | 23% | 35.2% |  |  | CC(C)(O)CCn1cc2cc(NC(=O)c3cccc(S(N)(=O)=O)c3)c(-c3ccc(CN4CCOCC4)cc3)cc2n1 [Example 39, N-(2-(3-hydroxy-3-methylbutyl)-6-(4-(morpholinomethyl)phenyl)-2H-indazol-5-yl)-3-sulfamoylbenzamide]
19 | 69.7% | 6.5% | 11.2% |  |  | CC(C)(O)CCn1cc2cc(NC(=O)c3cccc([N+](=O)[O-])c3)c(N3CCSCC3)cc2n1 [Example 40, N-(2-(3-hydroxy-3-methylbutyl)-6-thiomorpholino-2H-indazol-5-yl)-3-nitrobenzamide]
20 | 59.6% |  | 0% |  | 75% | CC(C)(O)Cn1cc2cc(NC(=O)c3cccc([N+](=O)[O-])c3)c(N3CCSCC3)cc2n1 [Example 45, N-(2-(2-hydroxy-2-methylpropyl)-6-thiomorpholino-2H-indazol-5-yl)-3-nitrobenzamide]
21 | 55.1% |  | 9.6% |  | 68.8% | CC(C)(O)Cn1cc2cc(NC(=O)c3cccc([N+](=O)[O-])c3)c(-c3ccsc3)cc2n1 [Example 50, N-(2-(2-hydroxy-2-methylpropyl)-6-(thiophen-3-yl)-2H-indazol-5-yl)-3-nitrobenzamide]

Reference: EP4737451A1 (Dong Wha Pharm. Co., Ltd., priority 2023, dated 2025)
